In article PMC6723352, “Exploring Structure-Activity Relationship in Tacrine-Squaramide Derivatives as Potent Cholinesterase Inhibitors” (Biomolecules, 2019):
Where two headings read alike, the source gives them in different places.

Assays:
[1] = biological target: T1, human AChE (hAChE), recombinant acetylcholinesterase (Homo sapiens, UniProt P22303); experiment: hAChE inhibition, modified Ellman's method; type: biochemical; conditions: for times more potent than reference (hAChE): 3a vs THA, 5d vs 7-MEOTA; for SI (selectivity index for hAChE): ratio IC50(hBChE)/IC50(hAChE)
T1 construct: made in house
Description: Three series of tacrine-squaramide homodimers were tested for their inhibitory potential against human AChE (hAChE) and human BChE (hBChE) enzymes using modified spectrophotometric method of Ellman et al.. THA, 6-Cl-THA and 7-MEOTA were used as reference compounds. […].
(§1) Human plasmatic butyrylcholinesterase (BChE; EC 3.1.1.8) and recombinant acetylcholinesterase (AChE; 3.1.1.7) were prepared at the Department of Toxicology and Military Pharmacy. 5,5′-dithiobis(2-nitrobenzoic acid) (Ellman’s reagent, DTNB), phosphate buffer (PB, pH 7.4), acetylthiocholine (ATC) and butyrylthiocholine (BTC), were purchased from Sigma-Aldrich, Prague, Czech Republic. For measuring purposes – polystyrene Nunc 96-well microplates with flat bottom shape (ThermoFisher Scientific, USA) were utilized.
(§2) All the assays were carried out in 0.1 M KH2PO4/K2HPO4 buffer, pH 7.4. Enzyme solutions were prepared at 2.0 units/mL in 2 mL aliquots. The assay medium (100 µL) consisted of 40 µL of 0.1 M phosphate buffer (pH 7.4), 20 µL of 0.01 M DTNB, 10 µL of the enzyme, and 20 µL of 0.01 M substrate (ATC/BTC iodide solution).
(§3) Tested compounds were preincubated for 5 min. The reaction was started by immediate addition of 20 µL of the substrate. The activity was determined by measuring the increase in absorbance at 412 for AChE/BChE at 37 °C at 2 min intervals - using a Multi-mode microplate reader Synergy 2 (Winooski, VT, USA). Each concentration was assayed in triplicate. Software GraphPad Prizm 5 (San Diego, CA, USA) was used for the statistical data evaluation.

[2] = biological target: human BChE (hBChE), human plasmatic butyrylcholinesterase (Homo sapiens, UniProt P06276); experiment: hBChE inhibition, modified Ellman's method; type: biochemical
Description: Three series of tacrine-squaramide homodimers were tested for their inhibitory potential against human AChE (hAChE) and human BChE (hBChE) enzymes using modified spectrophotometric method of Ellman et al.. THA, 6-Cl-THA and 7-MEOTA were used as reference compounds.
as §1, §2, §3

in vitro = conditions: human
Description: The human origin cell line HepG2 (ATCC, Mannassas, VA, USA) isolated from liver hepatocellular carcinoma was used to evaluate cytotoxicity of tested compounds. The cells were cultivated in Dublecco’s modified Eagle’s medium (DMEM; Biosera, Nuaille, France) supplemented with 10% fetal bovine serum (Biosera) and 1% penicillin-streptomycin antibiotic solution (Sigma-Aldrich, St. Louis, MO, USA), incubated at 37 °C in a CO2 incubator (Binder CO2 incubator BC 160, Tuttlingen, Germany) and routinely passaged by trypsinization at 75–85% confluence.
The final concentration of DMSO was less than 0.25% per well.
After 24-h incubation, the medium containing serially diluted substances was aspirated from each well and replaced by 100 µL of fresh medium containing MTT (0.5 mg/mL). Plates were subsequently incubated at 37 °C in CO2 incubator for 45 min. The medium containing MTT was then aspirated and formazan dissolved in 100 μL of DMSO. The optical density of each well was measured using Synergy 2 Multi-Mode Microplate Reader (BioTek Instruments, Inc., Winooski, VT, USA) at 570 nm. The cell viability was expressed as the percentage of untreated control. Each experiment was performed in triplicate and repeated three independent times.
The IC50 values were expressed as a mean ± standard error of the mean (SEM).

[3] = for Pe: PAMPA, PBS pH 7.4; for BBB permeation prediction in words: PAMPA-BBB; for CNS (+/−) predicted BBB permeation: class from Pe
From the text: An important feature for drugs targeting the brain is their ability to cross the BBB. The parallel artificial membrane permeability assay (PAMPA) is a high-throughput screening tool applicable for prediction of passive transport across BBB [57]. […] These include mainly (i) the different composition of the human phospholipid bilayer may cause deviation in predicted permeability, (ii) omitting the absorption of compounds that are actively transported by influx transporters and pumped-out by various efflux mechanisms with the glycoprotein P at the forefront or (iii) transport through the paracellular route which is mostly exploited by small […] molecules. Even considering these drawbacks, PAMPA-BBB is conceived as very simple but powerful tool for BBB prediction.
PAMPA (the parallel artificial membrane permeability assay) is a high-throughput screening tool applicable for prediction of the passive transport of potential drugs across the blood-brain barrier (BBB). In this study, it has been used as a non-cell-based in vitro assay carried out in a coated 96-well membrane filter. The filter membrane of the donor plate was coated with PBL (Polar Brain Lipid, Avanti, USA) in dodecane (4 µl of 20 mg/mL PBL in dodecane) and the acceptor well was filled with 300 µl of phosphate buffer saline, (PBS pH 7.4; VA). The tested compounds were dissolved first in DMSO and then diluted with PBS pH 7.4 to reach the final concentrations 50–500 µM in the donor well. […] In principle, test compound diffuse from the donor well through the polar brain lipid membrane (area = 0.28 cm^2) to the acceptor well. The concentration of the tested compound in both donor and the acceptor wells were assessed after 3, 4, 5 and 6 h of incubation in quadruplicate using the UV plate reader Synergy HT (Biotek, USA) at the maximum absorption wavelength of each compound (n = 3). Besides that, the solution of theoretical compound concentration, simulating the equilibrium state, established if the membrane was ideally permeable was prepared and assessed as well.

hAChE = biological target: T2, hAChE (Homo sapiens, UniProt P22303); experiment: Kinetic study of AChE inhibition; type: biochemical
T2 construct: made in house
Description: (§4) Kinetic study was performed in order to describe the interactions of the compounds 4b and 3e with hAChE and hBChE, respectively. Inhibition kinetics were elucidated from velocity curves that were measured at several concentrations of the corresponding substrate (AChE—acetylthiocholine, BChE—butyrylthiocholine) and tested compounds. The type of enzyme inhibition and corresponding kinetic parameters (Ki and Ki’) were determined by nonlinear regression analysis. Results for each type model of inhibition (competitive, non-competitive, uncompetitive and mixed) were compared by sum-of-squares F-test. […].
(§5) The kinetic study of AChE and BChE was performed by using the above-mentioned modified Ellman’s method. The values of Vmax and Km of the Michaelis-Menten kinetics as well as the values of Ki and Ki’ were calculated by nonlinear regression from the substrate velocity curves. Linear regression was used for calculation of Lineweaver-Burk plots. All calculations were performed using GraphPad Prism software version 6.07 for Windows (San Diego, CA, USA).

hBChE = hBChE (Homo sapiens, UniProt P06276); experiment: Kinetic study of BChE inhibition; type: biochemical
Description: as §4, §5

[4] = nonlinear regression, sum-of-squares F-test, p < 0.05
[5] = mean of at least three experiments, read-out: IC50 hBChE

hBChE, sequence (P06276 29-602): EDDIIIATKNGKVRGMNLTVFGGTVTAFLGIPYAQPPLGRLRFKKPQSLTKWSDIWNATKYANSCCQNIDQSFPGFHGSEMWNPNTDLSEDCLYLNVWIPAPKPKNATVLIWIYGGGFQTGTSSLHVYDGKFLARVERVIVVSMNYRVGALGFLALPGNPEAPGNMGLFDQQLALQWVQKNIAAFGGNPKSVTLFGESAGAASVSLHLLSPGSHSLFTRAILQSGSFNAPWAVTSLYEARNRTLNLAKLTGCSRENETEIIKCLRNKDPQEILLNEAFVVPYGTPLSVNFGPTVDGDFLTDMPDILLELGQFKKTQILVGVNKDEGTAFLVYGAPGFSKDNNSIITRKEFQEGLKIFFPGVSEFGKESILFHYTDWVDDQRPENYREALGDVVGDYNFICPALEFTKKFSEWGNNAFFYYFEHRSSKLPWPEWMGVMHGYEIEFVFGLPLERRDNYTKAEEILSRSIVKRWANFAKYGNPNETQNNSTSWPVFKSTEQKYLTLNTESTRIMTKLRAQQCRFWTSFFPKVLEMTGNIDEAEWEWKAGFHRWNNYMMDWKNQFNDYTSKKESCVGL
human BChE (hBChE), human plasmatic butyrylcholinesterase, sequence (P06276 29-602): as above
T1 sequence (P22303 32-614): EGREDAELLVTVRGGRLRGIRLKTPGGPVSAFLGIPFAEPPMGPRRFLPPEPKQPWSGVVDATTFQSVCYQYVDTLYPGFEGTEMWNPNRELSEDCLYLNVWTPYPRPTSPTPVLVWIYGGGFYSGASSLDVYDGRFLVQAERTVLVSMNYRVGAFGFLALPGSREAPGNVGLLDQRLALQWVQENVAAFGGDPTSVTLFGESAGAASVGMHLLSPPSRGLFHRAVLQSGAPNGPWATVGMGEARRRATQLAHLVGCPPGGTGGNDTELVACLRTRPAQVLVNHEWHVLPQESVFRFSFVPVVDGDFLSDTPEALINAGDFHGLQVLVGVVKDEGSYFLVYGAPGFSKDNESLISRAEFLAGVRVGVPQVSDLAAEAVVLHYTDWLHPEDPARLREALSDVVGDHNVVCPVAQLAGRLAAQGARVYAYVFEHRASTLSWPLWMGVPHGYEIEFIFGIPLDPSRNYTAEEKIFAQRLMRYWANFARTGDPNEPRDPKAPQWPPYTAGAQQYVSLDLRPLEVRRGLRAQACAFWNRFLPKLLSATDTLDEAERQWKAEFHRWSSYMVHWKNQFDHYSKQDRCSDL
T2 sequence (P22303 32-614): as above

SMILES	IC50 [1] [nM]	times more potent than reference (hAChE) [1] [times]	SI (selectivity index for hAChE) [1]	IC50 [2] [nM]	IC50 at 24 h (in vitro) [nM]	Pe [3] [×10⁻⁶ cm/s]	BBB permeation prediction in words [3]	CNS (+/−) predicted BBB permeation [3]	times less active than bis(7)-tacrine (hAChE) ([1]; IC50 comparison with bis(7)-tacrine) [times]	Ki' (hAChE; binding to enzyme-substrate complex, substrate acetylthiocholine) [nM]	Ki (hAChE; binding to free enzyme, substrate acetylthiocholine) [nM]	type of inhibition (hAChE; [4])	IC50 [2, 5] [nM]	Ki' (hBChE; binding to enzyme-substrate complex, substrate butyrylthiocholine) [nM]	Ki (hBChE; binding to free enzyme, substrate butyrylthiocholine) [nM]	type of inhibition (hBChE; [4])
O=c1c(NCCNc2c3c(nc4ccccc24)CCCC3)c(NCCNc2c3c(nc4ccccc24)CCCC3)c1=O [Compound 3a, Bis({2-[(1,2,3,4-tetrahydroacridin-9-yl)amino]ethyl}amino)cyclobut-3-ene-1,2-dione]	3.8	84	16	62	> 256000	1.1	cannot presumably cross the BBB	CNS − (CNS −: low BBB permeation predicted with Pe (10^−6 cm·s^−1) < 2.0)								
COc1ccc2nc3c(c(NCCCCCNc4c(NCCCCCNc5c6c(nc7ccc(OC)cc57)CCCC6)c(=O)c4=O)c2c1)CCCC3 [Compound 5d, Bis({5-[(7-methoxy-1,2,3,4-tetrahydroacridin-9-yl)amino]pentyl}amino)cyclobut-3-ene-1,2-dione]	120	83	5.7	680	98000	1.3	cannot presumably cross the BBB	CNS − (CNS −: low BBB permeation predicted with Pe (10^−6 cm·s^−1) < 2.0)								
O=c1c(NCCCNc2c3c(nc4cc(Cl)ccc24)CCCC3)c(NCCCNc2c3c(nc4cc(Cl)ccc24)CCCC3)c1=O [Compound 4b, Bis({3-[(6-chloro-1,2,3,4-tetrahydroacridin-9-yl)amino]propyl}amino)cyclobut-3-ene-1,2-dione]	2		55	110	> 64000	2.5	uncertain BBB permeation	CNS +/− (CNS +/−: BBB permeation uncertain with Pe (10^−6 cm·s^−1) from 4.0 to 2.0)	2.5	0.5 ± 0.2	0.4 ± 0.2	mixed type of inhibition				
COc1ccc2nc3c(c(NCCNc4c(NCCNc5c6c(nc7ccc(OC)cc57)CCCC6)c(=O)c4=O)c2c1)CCCC3 [Compound 5a, Bis({2-[(7-methoxy-1,2,3,4-tetrahydroacridin-9-yl)amino]ethyl}amino)cyclobut-3-ene-1,2-dione]	170		0.7		> 256000	2.3	uncertain BBB permeation	CNS +/− (CNS +/−: BBB permeation uncertain with Pe (10^−6 cm·s^−1) from 4.0 to 2.0)					130			
O=c1c(NCCNc2c3c(nc4cc(Cl)ccc24)CCCC3)c(NCCNc2c3c(nc4cc(Cl)ccc24)CCCC3)c1=O [Compound 4a, Bis({2-[(6-chloro-1,2,3,4-tetrahydroacridin-9-yl)amino]ethyl}amino)cyclobut-3-ene-1,2-dione]	4.2		36		> 128000								150			
COc1ccc2nc3c(c(NCCCCCCCNc4c(NCCCCCCCNc5c6c(nc7ccc(OC)cc57)CCCC6)c(=O)c4=O)c2c1)CCCC3 [Compound 5f, Bis({7-[(7-methoxy-1,2,3,4-tetrahydroacridin-9-yl)amino]heptyl}amino)cyclobut-3-ene-1,2-dione]	170		7.6		9000								1300			
O=c1c(NCCCCCCNc2c3c(nc4cc(Cl)ccc24)CCCC3)c(NCCCCCCNc2c3c(nc4cc(Cl)ccc24)CCCC3)c1=O [Compound 4e, Bis({6-[(6-chloro-1,2,3,4-tetrahydroacridin-9-yl)amino]hexyl}amino)cyclobut-3-ene-1,2-dione]	3.2		170		> 64000	17	high probability to cross the BBB	CNS + (CNS +: high BBB permeation predicted with Pe (10^−6 cm·s^−1) > 4.0)					540			
O=c1c(NCCCCCCNc2c3c(nc4ccccc24)CCCC3)c(NCCCCCCNc2c3c(nc4ccccc24)CCCC3)c1=O [Compound 3e, Bis({6-[(1,2,3,4-tetrahydroacridin-9-yl)amino]hexyl}amino)cyclobut-3-ene-1,2-dione]	13		1.6	21	76000	2.6	uncertain BBB permeation	CNS +/− (CNS +/−: BBB permeation uncertain with Pe (10^−6 cm·s^−1) from 4.0 to 2.0)						100 ± 28	8.1 ± 1.9	mixed type of inhibition
